Laboratory results from article PMC7180948, “New Insights into 4-Anilinoquinazolines as Inhibitors of Cardiac Troponin I–Interacting Kinase (TNNi3K)” (Molecules, 2020).

Tests used:
Assay in all cases: biochemical
Set-up in all cases: KINOMEscan competition binding panel (Eurofins DiscoverX), single concentration, percent inhibition
Settings in all cases: read-out: 15 at 1 µM % inhibition
ACVR1 = ACVR1 (Homo sapiens, UniProt Q04771)
Method in brief: (§1)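 Binding was profiled in the KINOMEscan panel of over 400 human kinases, with each compound tested at a single concentration of 1 µM to map selectivity.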

CHEK2 = CHEK2 (Homo sapiens, UniProt O96017)
Method in brief: as §1

CSNK1D = CSNK1D (Homo sapiens, UniProt P48730)
Method in brief: as §1

CSNK1E = CSNK1E (Homo sapiens, UniProt P49674)
Method in brief: as §1

DRAK1 = molecular target: T1, DRAK1 (Homo sapiens, UniProt Q9UEE5)
T1 construct: gene STK17A
Method in brief: as §1

EGFR(G719C) = EGFR(G719C) (Homo sapiens, UniProt P00533, G719C)
Method in brief: as §1

FGFR3 = FGFR3 (Homo sapiens, UniProt P22607)
Method in brief: as §1

FLT3(D835H) = FLT3(D835H) (Homo sapiens, UniProt P36888, D835H)
Method in brief: as §1

IKK-beta = molecular target: T2, IKK-beta (Homo sapiens, UniProt O14920)
T2 construct: gene IKBKB
Method in brief: as §1

[1] = molecular target: T3, JAK1(JH2domain-pseudokinase) (Homo sapiens, UniProt P23458)
T3 construct: JH2domain-pseudokinase
Method in brief: as §1

MAPKAPK5 = MAPKAPK5 (Homo sapiens, UniProt Q8IW41)
Method in brief: as §1

MARK1 = MARK1 (Homo sapiens, UniProt Q9P0L2)
Method in brief: as §1

MYLK4 = MYLK4 (Homo sapiens, UniProt Q86YV6)
Method in brief: as §1

PAK7 = molecular target: T4, PAK7 (Homo sapiens, UniProt Q9P286)
T4 construct: gene PAK5
Method in brief: as §1

PCTK1 = molecular target: T5, PCTK1 (Homo sapiens, UniProt Q00536)
T5 construct: gene CDK16
Method in brief: as §1

PHKG1 = PHKG1 (Homo sapiens, UniProt Q16816)
Method in brief: as §1

PIKFYVE = PIKFYVE (Homo sapiens, UniProt Q9Y2I7)
Method in brief: as §1

PKAC-beta = molecular target: T6, PKAC-beta (Homo sapiens, UniProt P22694)
T6 construct: gene PRKACB
Method in brief: as §1

QSK = molecular target: T7, QSK (Homo sapiens, UniProt Q9Y2K2)
T7 construct: gene SIK3
Method in brief: as §1

RIPK2 = RIPK2 (Homo sapiens, UniProt O43353)
Method in brief: as §1

TBK1 = TBK1 (Homo sapiens, UniProt Q9UHD2)
Method in brief: as §1

TIE2 = molecular target: T8, TIE2 (Homo sapiens, UniProt Q02763)
T8 construct: gene TEK
Method in brief: as §1

TNK2 = TNK2 (Homo sapiens, UniProt Q07912)
Method in brief: as §1

VEGFR2 = molecular target: T9, VEGFR2 (Homo sapiens, UniProt P35968)
T9 construct: gene KDR
Method in brief: as §1

CSNK1E, sequence (P49674 whole entry): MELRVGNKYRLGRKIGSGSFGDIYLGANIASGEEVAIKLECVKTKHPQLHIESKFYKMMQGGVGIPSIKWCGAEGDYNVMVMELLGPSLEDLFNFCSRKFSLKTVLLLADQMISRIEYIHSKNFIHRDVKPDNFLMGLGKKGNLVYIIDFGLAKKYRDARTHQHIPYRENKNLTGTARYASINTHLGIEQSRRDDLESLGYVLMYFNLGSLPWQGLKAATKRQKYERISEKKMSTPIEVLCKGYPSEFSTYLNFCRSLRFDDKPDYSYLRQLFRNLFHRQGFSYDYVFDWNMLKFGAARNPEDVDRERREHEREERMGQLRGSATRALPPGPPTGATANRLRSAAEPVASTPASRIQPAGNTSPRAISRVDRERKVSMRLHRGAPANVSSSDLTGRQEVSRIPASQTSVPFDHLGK
CSNK1D, sequence (P48730 whole entry): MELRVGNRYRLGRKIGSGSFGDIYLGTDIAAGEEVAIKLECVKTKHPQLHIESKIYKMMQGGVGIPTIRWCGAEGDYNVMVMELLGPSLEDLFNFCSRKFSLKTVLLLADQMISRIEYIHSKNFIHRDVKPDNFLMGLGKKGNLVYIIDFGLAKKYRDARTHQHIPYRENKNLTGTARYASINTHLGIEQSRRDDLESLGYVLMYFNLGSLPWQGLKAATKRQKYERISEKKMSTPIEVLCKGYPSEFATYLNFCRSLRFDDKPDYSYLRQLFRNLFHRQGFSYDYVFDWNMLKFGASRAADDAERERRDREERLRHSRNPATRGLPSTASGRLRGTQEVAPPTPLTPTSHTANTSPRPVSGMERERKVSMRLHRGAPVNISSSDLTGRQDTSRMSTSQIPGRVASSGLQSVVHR
T1 sequence (Q9UEE5 whole entry): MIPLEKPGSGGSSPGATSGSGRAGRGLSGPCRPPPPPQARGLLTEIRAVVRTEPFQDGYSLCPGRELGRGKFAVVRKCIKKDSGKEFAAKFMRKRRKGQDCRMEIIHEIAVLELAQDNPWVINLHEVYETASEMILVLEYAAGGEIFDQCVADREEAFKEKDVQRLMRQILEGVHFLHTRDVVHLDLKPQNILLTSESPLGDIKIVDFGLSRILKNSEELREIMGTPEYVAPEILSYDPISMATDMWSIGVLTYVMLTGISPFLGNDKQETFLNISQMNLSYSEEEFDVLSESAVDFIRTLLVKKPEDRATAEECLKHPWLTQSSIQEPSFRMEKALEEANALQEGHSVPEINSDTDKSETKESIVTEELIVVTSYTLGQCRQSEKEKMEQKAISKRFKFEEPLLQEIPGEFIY
MYLK4, sequence (Q86YV6 whole entry): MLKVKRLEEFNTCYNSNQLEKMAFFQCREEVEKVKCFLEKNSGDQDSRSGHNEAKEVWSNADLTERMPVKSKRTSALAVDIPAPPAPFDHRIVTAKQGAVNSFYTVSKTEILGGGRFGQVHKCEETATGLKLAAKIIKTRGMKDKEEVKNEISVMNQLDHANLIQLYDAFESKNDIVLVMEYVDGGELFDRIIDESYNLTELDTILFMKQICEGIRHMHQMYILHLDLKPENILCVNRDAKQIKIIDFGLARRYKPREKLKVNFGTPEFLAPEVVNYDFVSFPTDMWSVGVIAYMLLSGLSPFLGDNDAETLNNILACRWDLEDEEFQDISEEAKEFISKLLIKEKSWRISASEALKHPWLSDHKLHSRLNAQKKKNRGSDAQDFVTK
T5 sequence (Q00536 whole entry): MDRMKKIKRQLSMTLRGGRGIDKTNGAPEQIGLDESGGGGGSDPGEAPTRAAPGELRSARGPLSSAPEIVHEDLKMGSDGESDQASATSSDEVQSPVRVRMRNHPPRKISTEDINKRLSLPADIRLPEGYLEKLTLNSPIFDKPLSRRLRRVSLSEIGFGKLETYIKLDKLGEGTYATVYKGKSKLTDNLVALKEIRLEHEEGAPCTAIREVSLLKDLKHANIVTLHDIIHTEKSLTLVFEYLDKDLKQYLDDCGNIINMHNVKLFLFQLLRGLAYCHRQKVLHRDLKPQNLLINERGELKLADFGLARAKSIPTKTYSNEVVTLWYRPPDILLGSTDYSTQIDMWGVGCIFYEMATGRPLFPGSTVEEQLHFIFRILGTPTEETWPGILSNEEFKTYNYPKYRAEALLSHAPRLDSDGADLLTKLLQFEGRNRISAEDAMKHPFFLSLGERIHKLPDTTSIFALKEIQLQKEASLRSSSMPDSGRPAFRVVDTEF
ACVR1, sequence (Q04771 whole entry): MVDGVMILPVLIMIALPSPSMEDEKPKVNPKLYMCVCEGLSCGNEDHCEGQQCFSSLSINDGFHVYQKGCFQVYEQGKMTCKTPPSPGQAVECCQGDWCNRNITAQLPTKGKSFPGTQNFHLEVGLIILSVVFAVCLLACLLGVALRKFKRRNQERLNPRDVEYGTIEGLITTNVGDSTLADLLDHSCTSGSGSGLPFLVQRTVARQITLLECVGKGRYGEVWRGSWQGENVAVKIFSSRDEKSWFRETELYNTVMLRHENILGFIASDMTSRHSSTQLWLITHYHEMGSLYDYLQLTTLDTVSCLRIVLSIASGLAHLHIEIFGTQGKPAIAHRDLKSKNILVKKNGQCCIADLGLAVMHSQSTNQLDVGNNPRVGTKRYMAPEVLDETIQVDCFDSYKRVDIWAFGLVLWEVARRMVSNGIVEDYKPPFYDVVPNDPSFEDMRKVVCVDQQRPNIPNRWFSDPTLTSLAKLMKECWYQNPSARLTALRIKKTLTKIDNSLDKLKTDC
FGFR3, sequence (P22607 whole entry): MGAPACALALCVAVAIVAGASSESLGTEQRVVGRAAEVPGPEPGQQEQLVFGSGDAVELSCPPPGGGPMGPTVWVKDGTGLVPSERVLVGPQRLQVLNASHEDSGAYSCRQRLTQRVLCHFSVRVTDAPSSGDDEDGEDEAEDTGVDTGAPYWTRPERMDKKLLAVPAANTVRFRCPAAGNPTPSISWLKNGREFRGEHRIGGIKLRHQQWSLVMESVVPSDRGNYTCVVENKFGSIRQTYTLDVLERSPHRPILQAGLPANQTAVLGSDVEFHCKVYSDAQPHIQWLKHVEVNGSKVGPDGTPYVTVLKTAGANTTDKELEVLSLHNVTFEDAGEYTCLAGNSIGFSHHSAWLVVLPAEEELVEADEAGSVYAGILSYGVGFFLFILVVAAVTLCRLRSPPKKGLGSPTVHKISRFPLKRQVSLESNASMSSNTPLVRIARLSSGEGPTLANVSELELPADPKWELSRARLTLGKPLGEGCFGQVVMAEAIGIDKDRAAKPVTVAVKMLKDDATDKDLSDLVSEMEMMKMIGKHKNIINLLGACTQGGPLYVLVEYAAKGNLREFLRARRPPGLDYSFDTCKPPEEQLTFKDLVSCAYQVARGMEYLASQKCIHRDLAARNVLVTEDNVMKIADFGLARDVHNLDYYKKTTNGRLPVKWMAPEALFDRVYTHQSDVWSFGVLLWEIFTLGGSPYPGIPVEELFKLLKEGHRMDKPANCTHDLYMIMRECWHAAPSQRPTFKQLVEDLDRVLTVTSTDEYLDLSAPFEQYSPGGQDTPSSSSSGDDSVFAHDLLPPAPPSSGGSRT
EGFR(G719C), sequence (P00533 whole entry G719C): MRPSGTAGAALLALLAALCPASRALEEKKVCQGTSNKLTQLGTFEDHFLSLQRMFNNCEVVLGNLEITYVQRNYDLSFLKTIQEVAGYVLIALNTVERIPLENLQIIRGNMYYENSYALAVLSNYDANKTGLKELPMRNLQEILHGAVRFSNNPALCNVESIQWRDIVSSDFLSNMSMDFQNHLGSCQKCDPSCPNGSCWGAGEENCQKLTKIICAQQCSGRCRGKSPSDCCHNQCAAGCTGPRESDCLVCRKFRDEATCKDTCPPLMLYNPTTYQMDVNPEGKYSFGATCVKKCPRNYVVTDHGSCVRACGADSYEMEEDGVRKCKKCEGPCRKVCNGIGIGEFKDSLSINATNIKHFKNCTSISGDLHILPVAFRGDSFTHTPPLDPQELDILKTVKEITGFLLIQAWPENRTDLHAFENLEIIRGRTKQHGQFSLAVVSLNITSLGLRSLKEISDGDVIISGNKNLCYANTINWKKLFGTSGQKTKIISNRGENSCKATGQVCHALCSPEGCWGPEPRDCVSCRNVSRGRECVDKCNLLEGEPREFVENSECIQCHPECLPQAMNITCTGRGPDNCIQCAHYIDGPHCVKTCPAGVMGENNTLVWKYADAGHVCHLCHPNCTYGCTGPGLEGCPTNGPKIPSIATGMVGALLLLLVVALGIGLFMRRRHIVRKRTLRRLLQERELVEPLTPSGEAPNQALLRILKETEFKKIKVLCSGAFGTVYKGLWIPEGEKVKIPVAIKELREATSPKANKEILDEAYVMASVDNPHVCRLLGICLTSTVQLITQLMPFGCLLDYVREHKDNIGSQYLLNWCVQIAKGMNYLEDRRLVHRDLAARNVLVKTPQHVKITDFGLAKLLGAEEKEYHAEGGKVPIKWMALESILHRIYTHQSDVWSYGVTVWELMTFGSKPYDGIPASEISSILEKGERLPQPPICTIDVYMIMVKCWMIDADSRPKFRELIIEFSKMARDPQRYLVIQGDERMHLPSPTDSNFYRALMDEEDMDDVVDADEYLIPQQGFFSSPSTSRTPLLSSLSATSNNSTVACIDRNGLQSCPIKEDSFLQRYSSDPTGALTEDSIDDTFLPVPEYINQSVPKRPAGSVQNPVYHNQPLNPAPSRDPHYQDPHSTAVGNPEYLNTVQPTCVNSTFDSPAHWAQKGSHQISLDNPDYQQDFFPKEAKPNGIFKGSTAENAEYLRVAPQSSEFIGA

## CNS(=O)(=O)c1ccc(N(C)C)c(Nc2nc(C)nc3cc(OC)c(OC)cc23)c1 [compound 15, 3-((6,7-dimethoxy-2-methylquinazolin-4-yl)amino)-4-(dimethylamino)-N-methylbenzenesulfonamide]
ACVR1
  inhibition at 1 µM: 0%
CHEK2
  inhibition at 1 µM: 13%
CSNK1D
  inhibition at 1 µM: 0%
CSNK1E
  inhibition at 1 µM: 0%
DRAK1
  inhibition at 1 µM: 0%
EGFR(G719C)
  inhibition at 1 µM: 0%
FGFR3
  inhibition at 1 µM: 1%
FLT3(D835H)
  inhibition at 1 µM: 10%
IKK-beta
  inhibition at 1 µM: 37%
[1]
  inhibition at 1 µM: 26%
MAPKAPK5
  inhibition at 1 µM: 23%
MARK1
  inhibition at 1 µM: 0%
MYLK4
  inhibition at 1 µM: 0%
PAK7
  inhibition at 1 µM: 0%
PCTK1
  inhibition at 1 µM: 22%
PHKG1
  inhibition at 1 µM: 0%
PIKFYVE
  inhibition at 1 µM: 13%
PKAC-beta
  inhibition at 1 µM: 0%
QSK
  inhibition at 1 µM: 22%
RIPK2
  inhibition at 1 µM: 4%
TBK1
  inhibition at 1 µM: 0%
TIE2
  inhibition at 1 µM: 6%
TNK2
  inhibition at 1 µM: 0%
VEGFR2
  inhibition at 1 µM: 12%
